Laboratory results: patent US20260287575A1, “LABEL-FREE METHODS FOR ASSESSING CELL STATE IN A BIOLOGICAL SAMPLE” (priority 2023, published 2026)

Assays:
[1] = tested on: CT26 live tumor fragments; assay: FLIM lifetime metabolic ratio (LMR) with ground truth dyes (PI, caspase 3/7) in CT26 live tumor fragments; assay type: cell-based, murine; details: for shift in the LMR relative to time zero healthy tissue: normalized LMR; for mode of cell death induced: confirmed with Caspase 3/7 and PI probes
Protocol: Live tumor fragments (LTFs) from flank expressed murine syngeneic CT26 tumors were used to assess cell state using a combination of OCM/dOCM and FLIM as described herein.
CT26 tumors were excised, bisected, and cut into 300×300×300 μm LTFs. These fragments were sorted into 18-well plates for analysis by microscopy. Fragments were incubated at 37° C. in 5% CO2 in non-phenol red containing RPMI for up to four hours before being placed in the microscope. During imaging the sample was maintained in a stage-top incubator at 37° C., 5% CO2, and 95% humidity. Images were taken using a custom four channel multi-photon microscope built on a modified Zeiss Axiovert platform using adapted Bruker components, the PrairieView software package, and electronic components to drive and control the scanning microscope. FLIM data was acquired using an 8 channel Swabian instruments time tagger.
FLIM images were acquired at 50 micron and 75 micron depths into the tissue. Live tumor fragment structure and metabolic status were assessed based on the intrinsically fluorescent metabolic co-factors […] (NAD(P)H), excited at 740 nm, and flavin adenine dinucleotide (FAD), excited at 880 nm. […] LMR histogram data from the fragments was normalized by taking the mode of the resultant histogram data at baseline from healthy tissue and setting this value to 0 across the time course. Data derived from the NAD(P)H, and FAD signals were used to segment the image into individual Voronoi cells seeded from nuclear segmentation. The normalized LMR value was determined for each Voronoi cell.
To qualify observed shifts in the LMR, the ground truth nuclear localizing dyes for cleaved caspase 3/7 activity (Invitrogen) or necrosis (propidium iodide) were added. Voronoi cells that stained positive for propidium iodide were marked as dead and those that were not stained with PI were marked as live.
Cell death via apoptosis was induced using staurosporine. […] (FIG. 8). […] Probe data from Caspase 3/7 and P1 confirmed the shift for LMR values indicating live tissue vs. dead tissue. Cell death via necroptosis was induced using Shikonin. […] PI confirmed the necroptosis signature.
To validate the imaging routine in a model with clinical relevancy, CT26 mLTFs were treated with a combination of […] (3MA) and doxorubicin over a duration of 48 hours (FIG. 10). For this, mLTFs were imaged every 24 hours following treatment for longitudinal assessment of chemotherapeutic efficacy. Linear metabolic shift values obtained in separate CT26 control experiments were applied to Voronoi segmented images to classify individual cells as alive or dead. Data were plotted in a time course indicating the activity of the drug combination.

mouse liver = assay: Multimodal dOCM and FLIM imaging of tissue viability in mouse liver after shikonin injection; assay type: cell-based; details: 100 nL, 6 μM, injected into the center of the tissue; PI staining
Protocol: 100 nL shikonin (6 μM) was injected into the center of the tissue to create necroptosis indicted by the white arrow. Scale bar: 100 μm. […] LMR values are indicated by the color bar.

mouse liver slice = assay: dOCM imaging of live and dead cells in a mouse liver slice after local staurosporine injection; assay type: cell-based; details: local injection of 200 nL, 2 μM in DMSO; 300 μm thick liver slice
Text: A 300 μm thick slice of liver is shown. […] Live cells in the live region (lower part in the xy plane) are highlighted in the dOCM image volume. The live cells show high contrast compared to dead regions in the three orthogonal views (xy, yz, and xz planes). The positions of the yz and xz slices are indicated by the yellow lines in the xy plane. Scale bar: 100 μm.
Live cells were visible in the dOCM image volume. […] Good correlation is observed between the dOCM signal and the expected LMR signatures in this monolithic tissue (FIG. 3). […] In those areas, the dOCM is used to establish a ground truth for living tissue that can in turn be used to qualify the LMR and set specific discreet baseline LMR values for living tissue in these regions. This is as opposed to using a generic, specific value determined with an assumption that the tissue is monolithic.

[2] = tested on: primary human lung cancer tissue; assay: Combined dOCM and FLIM imaging of tissue viability in a primary human lung cancer tissue slice; assay type: cell-based; details: 10 μM
Protocol: FIG. 16 presents multimodal imaging of tissue viability with primary human lung cancer tissue using combined dOCM and FLIM. (a) dOCM and LMR images of a human lung cancer tissue slice. (b) dOCM and LMR images of another lung tissue slice from the same sample. The metabolic state of this sample is different from the tissue slice in (a). (c) The tissue slice in (a) was treated with 10 μM staurosporine. The slice was imaged 24 hours after treatment. […] Scale bar: 100 μm.
FIG. 16 presents multimodal imaging of tissue viability with primary human lung cancer tissue using combined dOCM and FLIM. (a) dOCM and LMR images of a human lung cancer tissue slice. (b) dOCM and LMR images of another lung tissue slice from the same sample. The metabolic state of this sample is different from the tissue slice in (a). (c) The tissue slice in (a) was treated with 10 μM staurosporine. The slice was imaged 24 hours after treatment. […] Scale bar 100 μm.

Cn1cnc(N)c2ncnc1-2 [3-MA]
PI staining ([1]; CT26 live tumor fragment (FIG. 6)): dead cells | LMR values of PI-stained cells ([1]; CT26 live tumor fragment treated and stained with PI (FIG. 6)): relatively uniform low LMR values

CC(C)=CC[C@@H](O)C1=CC(=O)c2c(O)ccc(O)c2C1=O [Shikonin]
mode of cell death created (mouse liver): necroptosis | shift in the LMR relative to time zero healthy tissue ([1]; CT26 LTFs): large, reproducible shift to the left | Caspase 3/7 staining ([1]; CT26 LTFs, stressed tissue): little to no Caspase 3/7 staining | mode of cell death induced ([1]; CT26 LTFs): necroptosis

CN[C@@H]1C[C@H]2O[C@@](C)([C@@H]1OC)n1c3ccccc3c3c4c(c5c6ccccc6n2c5c31)C(=O)NC4 [staurosporine]
shift in the LMR relative to time zero healthy tissue ([1]; CT26 LTFs): large, reproducible shift to the right | mode of cell death induced ([1]; CT26 LTFs): apoptosis | tissue viability by dOCM (mouse liver slice): caused tissue death | cell state indicated by NADH and FAD phasor plots ([2]; 24 hours after treatment): undergoing apoptosis | metabolic state (LMR) compared to that prior to treatment ([2]; 24 hours after treatment): shifted | viable cells revealed by dOCM ([2]; imaged 24 hours after treatment): Less viable cells
